According to US12152016B2, “Aryl hydrocarbon receptor modulators and uses thereof” (Beth Israel Deaconess Medical Center, Inc., priority 2018, dated 2024):
“Also recorded” adds a separate entry of the source.

Experiments:
[1] = tested on: AHR-dependent transcription of the CYP1A1 gene; assay: CYP1A1 induction in mouse macrophages; format: cell-based
Procedure: Mouse macrophages were also used to test AHR-dependent transcription of the CYP1A1 gene in vivo. Finally, the activity of exemplary compounds of Formula (I) described herein was tested in the human […] cell line U937. The U937 cell line is derived from a patient with diffuse histiocytic lymphoma. Tables 2-4 summarize structure-activity relationship data collected for exemplary, non-limiting compounds of Formula (I) described herein.

AhR = target: T1, AhR (Mus musculus, UniProt P30561); assay: AhR nuclear translocation assay, mouse Hepa-1c1c7; format: cell-based; conditions: mouse Hepa-1c1c7, 10 μM, 90 minutes
T1 construct: endogenous in cells; host or cells: Hepa-1c1c7 (mouse hepatoma cell line)
T1 sequence (P30561 10-805 limits assumed): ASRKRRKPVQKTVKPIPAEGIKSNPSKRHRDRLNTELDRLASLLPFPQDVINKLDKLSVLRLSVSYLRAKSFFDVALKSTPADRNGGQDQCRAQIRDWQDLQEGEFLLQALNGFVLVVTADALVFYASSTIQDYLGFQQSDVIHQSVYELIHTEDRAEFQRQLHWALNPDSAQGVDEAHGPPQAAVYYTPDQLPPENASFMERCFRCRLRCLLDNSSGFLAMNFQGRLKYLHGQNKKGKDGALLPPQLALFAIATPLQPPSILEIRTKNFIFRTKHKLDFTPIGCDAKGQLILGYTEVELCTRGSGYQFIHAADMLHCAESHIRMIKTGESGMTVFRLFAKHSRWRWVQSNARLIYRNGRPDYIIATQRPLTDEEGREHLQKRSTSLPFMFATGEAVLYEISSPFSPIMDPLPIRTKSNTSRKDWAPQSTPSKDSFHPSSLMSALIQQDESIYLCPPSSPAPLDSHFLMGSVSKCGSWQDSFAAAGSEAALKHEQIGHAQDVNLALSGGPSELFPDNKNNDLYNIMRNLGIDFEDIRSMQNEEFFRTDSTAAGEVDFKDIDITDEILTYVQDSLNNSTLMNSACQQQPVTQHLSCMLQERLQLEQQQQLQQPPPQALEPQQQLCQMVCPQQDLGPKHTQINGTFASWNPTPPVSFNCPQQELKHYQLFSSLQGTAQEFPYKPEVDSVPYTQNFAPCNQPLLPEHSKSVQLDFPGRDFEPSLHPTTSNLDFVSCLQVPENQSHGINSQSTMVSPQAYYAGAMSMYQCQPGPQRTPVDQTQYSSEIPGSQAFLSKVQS
T1 sequence (P53762 whole entry partner): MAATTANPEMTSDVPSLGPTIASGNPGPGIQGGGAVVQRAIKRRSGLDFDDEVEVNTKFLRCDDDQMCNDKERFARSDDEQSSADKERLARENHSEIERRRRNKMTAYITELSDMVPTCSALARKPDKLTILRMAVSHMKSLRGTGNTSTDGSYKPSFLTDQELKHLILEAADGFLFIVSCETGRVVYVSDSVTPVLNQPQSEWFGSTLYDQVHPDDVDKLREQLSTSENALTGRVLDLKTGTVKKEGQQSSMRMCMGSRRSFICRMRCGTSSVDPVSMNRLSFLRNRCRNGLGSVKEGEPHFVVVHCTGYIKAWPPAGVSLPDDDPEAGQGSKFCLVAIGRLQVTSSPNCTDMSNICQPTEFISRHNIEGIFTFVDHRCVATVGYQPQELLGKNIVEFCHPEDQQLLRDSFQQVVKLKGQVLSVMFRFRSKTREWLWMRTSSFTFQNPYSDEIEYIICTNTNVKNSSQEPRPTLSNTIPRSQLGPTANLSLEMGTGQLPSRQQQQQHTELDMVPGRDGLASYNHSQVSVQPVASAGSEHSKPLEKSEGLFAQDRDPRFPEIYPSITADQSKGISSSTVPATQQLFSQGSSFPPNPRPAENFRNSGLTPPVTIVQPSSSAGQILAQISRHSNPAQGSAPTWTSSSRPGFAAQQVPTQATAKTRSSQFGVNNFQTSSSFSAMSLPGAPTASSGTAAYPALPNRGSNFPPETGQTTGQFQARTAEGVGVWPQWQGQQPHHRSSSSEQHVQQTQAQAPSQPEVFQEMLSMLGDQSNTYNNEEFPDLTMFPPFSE
Procedure: Mouse Hepa-1c1c7 or human HepG2 cells were seeded in 8 well chamber slides followed by 24 hours incubation in tryptophan deficient media (HBSS with Ca^2+ and Mg^2+, 10% heat inactivated FBS, 1× non-essential amino acids, 1× sodium pyruvate, 4.5 g/L glucose). Cells were treated with vehicle control (DMSO) or 10 μM ITE, compound 108, or compound 109 for 90 minutes in tryptophan deficient media. Following treatment, cells were fixed in 4% formaldehyde and processed according to standard immunofluorescence staining protocol. Primary anti-AhR antibody was applied at 1:100 dilution (Enzo, BML-SA210) and Alexa488 conjugated secondary antibody was applied at 1:500 dilution (Cell Signaling, 4412S). Actin was stained using Alexa 568 conjugated Phalloidin (Fisher). Samples were mounted in anti-fade mounting medium supplemented with DAPI for nuclear staining and imaged with confocal microscopy (Leica SP5×MP, 63× oil lens).

[2] = target: T2, aryl hydrocarbon receptor (AHR) (Homo sapiens, UniProt P35869); assay: XRE-driven luciferase reporter assay, human HepG2
T2 sequence (P35869 11-848): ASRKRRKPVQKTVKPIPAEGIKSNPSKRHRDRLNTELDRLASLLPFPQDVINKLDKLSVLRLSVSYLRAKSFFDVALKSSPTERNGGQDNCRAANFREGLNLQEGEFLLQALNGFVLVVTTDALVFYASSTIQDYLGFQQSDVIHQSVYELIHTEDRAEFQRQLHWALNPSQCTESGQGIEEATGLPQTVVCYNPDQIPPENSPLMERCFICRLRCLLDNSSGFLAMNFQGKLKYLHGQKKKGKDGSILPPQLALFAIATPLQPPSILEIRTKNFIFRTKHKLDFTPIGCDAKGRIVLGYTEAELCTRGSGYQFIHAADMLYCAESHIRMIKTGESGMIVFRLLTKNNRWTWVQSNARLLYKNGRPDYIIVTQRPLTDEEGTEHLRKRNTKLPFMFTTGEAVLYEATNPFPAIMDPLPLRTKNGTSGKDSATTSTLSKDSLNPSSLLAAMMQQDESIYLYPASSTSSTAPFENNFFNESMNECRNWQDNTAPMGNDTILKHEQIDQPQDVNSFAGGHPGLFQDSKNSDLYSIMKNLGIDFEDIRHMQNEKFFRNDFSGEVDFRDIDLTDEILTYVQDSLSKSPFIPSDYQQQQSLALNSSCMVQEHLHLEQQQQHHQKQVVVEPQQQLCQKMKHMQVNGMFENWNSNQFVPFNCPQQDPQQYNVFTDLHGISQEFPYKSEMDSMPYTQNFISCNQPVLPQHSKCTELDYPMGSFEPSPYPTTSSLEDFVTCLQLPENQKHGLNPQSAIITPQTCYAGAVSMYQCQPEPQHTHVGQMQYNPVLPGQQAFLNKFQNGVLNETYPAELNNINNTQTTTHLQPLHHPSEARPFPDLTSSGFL
Procedure: The Human HepG2 cell line is a human liver cancer cell line, and provide a relevant in vitro AHR activity model. These Hep2G cells have been modified to stably express an AHR-responsive (XRE) firefly luciferase reporter gene to give Hep2G-XRE cells. The expression of luciferase should primarily reflect AHR-dependent transcription controlled by XRE.
Transfected cells were treated with AhR agonist (10^−5-10^−12) for 4.5 h in full medium. Cells were lysed and luciferase was activated using the Luciferase Assay System (Promega). Luminescence signals were measured with a FluroStar Omega microplate reader. Luminescence signals of compound treated groups were normalized to vehicle (DMSO) treated control and plotted as concentration dependent fold changes.

How did the “CYP1A1 induction (% of ITE ± SEM)” value ([1]; 50 nM) turn out when N#Cc1cccc(C(=O)c2c[nH]c3ccccc23)n1 [Compound 108, 6-(1H-indole-3-carbonyl)pyridine-2-carbonitrile] was run?
Its value is 33 ± 3 % of ITE.

And the “CYP1A1 induction (% of ITE ± SEM)” value ([1]; 5 μM)?
The value was 94 ± 24 % of ITE.

What about the AhR nuclear translocation (AhR) of the same molecule?
The AhR nuclear translocation was “localized in the nucleus; also recorded: rapid nuclear enrichment of AhR”.

And the “XRE luciferase Emax (fold)” value ([2]; Human HepG2, fold over vehicle)?
Its value is 74 fold.

What about the EC50 ([2]; XRE luciferase EC50, Human HepG2, least square curve fitting, >10,000 = does not reach 50% of Emax of ITE at 10 μM (highest concentration tested)) of the same molecule?
The EC50 was 2.8 nM.
